The text below walks through data of patent publication US8957013B2 (priority 2007, dated 2015).

The test is classed as binding.

Regarding HPNFSKYILHQR, the “selectivity for DNT over TNT target” value is “selective for the DNT target”.
